In patent US20200215016A1, “Ketone Bodies To Protect Tissues From Damage By Ionizing Radiation” (TDELTAS LIMITED, priority 2012, published 2020):

Experiments:
HOS cells = assay: Protection of cultured osteoblasts against proton radiation (4 MeV): cell survival and DNA damage; assay type: cell-based, human; settings: ketone treatment prior to proton radiation (4 MeV)
Protocol: FIG. 3 is a pair of graphs and images illustrating protection against proton radiation after administration of ketones. HOS cells were treated with ketone esters either pre- or post-proton radiation (4 MeV). […] The methods used in the studies of cultured cells were the same as previously reported in Miller A. C. et al., Int. J. of Radiation Biol. 1997, 72: 211-18. The ester composition used was the mono R 3 hydroxybutyryl-R-1,3 butanediol enantiomerically enriched in the 1 position of R-1,3 butanediol. Studies were performed using cultured osteoblasts exposed to gamma radiation with and without (R)-1,3-butanediol ester of (R)-3-hydroxybutyrate as described herein to determine the effect of ketone esters on radiation damage. FIG. 1 is a pair of graphs illustrating cellular radioprotection by ketone esters in which human cultured osteoblast cells were treated pre- or post […] gamma radiation (0.6 Gy/min) with a ketone ester. FIG. 2 illustrates chromosomal protection by ketone esters. FIG. 3 is a pair of graphs illustrating protection against proton radiation after administration of ketones in which human cultured osteoblast cells were treated pre- or post-proton radiation (4 MeV) with a ketone ester. FIG. 4 is a graph illustrating ketone ester stability at pH 7. FIG. 5 is a graph illustrating ketone ester blood metabolite levels. […]

[1] = system: Human osteoblast cells (HOS); assay: Cellular radioprotection of cultured osteoblasts exposed to 60Co gamma radiation; assay type: cell-based; settings: ketone ester administered after radiation
Protocol: FIG. 1 is a pair of graphs illustrating cellular radioprotection by ketone esters. Human osteoblast cells (HOS) were treated with ketone esters either pre-(left panel) or post-(right panel) ^60Co gamma radiation (0.6 Gy/min). The methods used in the studies of cultured cells were the same as previously reported in Miller A. C. et al., Int. J. of Radiation Biol. 1997, 72: 211-18. The ester composition used was the mono R 3 hydroxybutyryl-R-1,3 butanediol enantiomerically enriched in the 1 position of R-1,3 butanediol. Studies were performed using cultured osteoblasts exposed to gamma radiation with and without (R)-1,3-butanediol ester of (R)-3-hydroxybutyrate as described herein to determine the effect of ketone esters on radiation damage. FIG. 1 is a pair of graphs illustrating cellular radioprotection by ketone esters in which human cultured osteoblast cells were treated pre- or post […] gamma radiation (0.6 Gy/min) with a ketone ester. FIG. 2 illustrates chromosomal protection by ketone esters. FIG. 3 is a pair of graphs illustrating protection against proton radiation after administration of ketones in which human cultured osteoblast cells were treated pre- or post-proton radiation (4 MeV) with a ketone ester. FIG. 4 is a graph illustrating ketone ester stability at pH 7. FIG. 5 is a graph illustrating ketone ester blood metabolite levels. […]

[2] = Ketone ester blood metabolite levels / ketosis after administration; assay type: in vivo; settings: FIG. 5: 5 grams/kg dose, males
Protocol: FIG. 5 is a graph illustrating ketone ester blood metabolite levels (5 grams/kg dose, males).
To maintain elevated blood ketone body concentrations over a 24 hour period, delayed release formulations can be used. The release of the (R)-3-hydroxybutyrate derivatives can be controlled by a number of formulation techniques. For example, techniques such as enteric coatings, film coatings, microencapsulation and the like can be used to retard release of the (R)-3-hydroxybutyrate derivatives as is known to those of ordinary skill in the art.

For `C[C@@H](O)CCOC(=O)C[C@@H](C)O` [ketone esters, mono R 3 hydroxybutyryl-R-1,3 butanediol], the cell survival (HOS cells; FIG. 3 left graph) was “increased cell survival”, the DNA damage (HOS cells; FIG. 3 right graph) was “mitigated DNA damage” and the cell salvage [1] was “increases cell salvage”. The generation of ketosis [2] was “sustained generation of ketosis over a period of hours”.
